Consider four compounds from ChEMBL document CHEMBL2203255, “Nerve growth factor-potentiating benzofuran derivatives from the medicinal fungus Phellinus ribis” (J Nat Prod, 2012).

SMILES strings stand for the structures. The source made the active and inactive calls. No cut-off for these calls is given here.

This assay deals with PC-12. Description: Neuritogenic activity in rat PC12 cells assessed as potentiation of NGF-induced neurite outgrowth at 1 to 30 uM after 4 days by phase-contrast microscopy in presence of 1 ng/ml NGF. The class given is functional, cell-based.
With `CO[C@@H]1C(=O)c2c(oc3ccccc23)[C@H](O)[C@H]1O`, the outcome was Active.
With `CO[C@H]1[C@H](O)c2oc3ccccc3c2C(=O)[C@@H]1OC`, the outcome was Active.
The same measure for `CO[C@@H]1[C@H](OC)C(=O)c2c(oc3ccccc23)[C@@H]1O`: “Active”.
As for `CO[C@H]1[C@H](OC)C(=O)c2c(oc3c(O)cccc23)[C@@H]1O`, the outcome was Active.
